From patent publication US20080108612A1, “Use of Purine Derivatives as HSP90 Protein Inhibitors” (AVENTIS PHARMA S.A., priority 2005, published 2008) come the findings set out here.

A word on the IC50: it is the concentration needed to halve the response being measured. A word on the melting point: it is the temperature, or range, at which the solid turns liquid.

Molecules are shown by their SMILES. Counter-ions that a name gives are not always drawn.

The target of one series is Hsp82 (Saccharomyces cerevisiae, UniProt P02829). As to the kind of experiment: Inhibition of the ATPase activity of Hsp82 in the enzymatic coupling system (pyruvate kinase / lactate dehydrogenase). It counts as biochemical.
Chain of Hsp82 (P02829 whole entry): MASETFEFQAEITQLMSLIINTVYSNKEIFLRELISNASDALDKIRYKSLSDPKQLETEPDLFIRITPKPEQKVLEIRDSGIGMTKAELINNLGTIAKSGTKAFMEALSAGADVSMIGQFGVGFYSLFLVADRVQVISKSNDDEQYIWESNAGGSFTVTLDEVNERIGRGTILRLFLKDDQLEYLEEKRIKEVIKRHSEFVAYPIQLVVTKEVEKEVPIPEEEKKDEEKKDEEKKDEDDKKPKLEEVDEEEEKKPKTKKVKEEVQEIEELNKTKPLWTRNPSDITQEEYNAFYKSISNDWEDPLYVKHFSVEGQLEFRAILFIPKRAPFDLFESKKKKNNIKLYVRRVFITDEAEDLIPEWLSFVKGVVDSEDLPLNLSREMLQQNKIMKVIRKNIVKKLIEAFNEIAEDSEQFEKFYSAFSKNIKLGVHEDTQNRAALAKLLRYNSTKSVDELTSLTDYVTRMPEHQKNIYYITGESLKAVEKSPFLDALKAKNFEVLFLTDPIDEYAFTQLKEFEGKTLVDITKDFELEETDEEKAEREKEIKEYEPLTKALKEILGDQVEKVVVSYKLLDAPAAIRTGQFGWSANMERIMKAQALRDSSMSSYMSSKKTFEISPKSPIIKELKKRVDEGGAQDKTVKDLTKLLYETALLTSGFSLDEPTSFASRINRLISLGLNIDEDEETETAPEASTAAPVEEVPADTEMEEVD
Details: not given
The text has this: The formation of ADP due to the ATPase activity of Hsp82 was used to develop another method for evaluating the enzymatic activity of this enzyme by application of an enzymatic coupling system involving pyruvate kinase (PK) and lactate dehydrogenase (LDH). In this kinetic-type spectrophotometric method, the PK catalyzes the formation of ATP and of pyruvate from phosphoenol pyruvate (PEP) and from the ADP produced by Hsp82. The pyruvate formed, which is a substrate for LDH, is then converted to lactate in the presence of NADH. In this case, the decrease in NADH concentration, measured by the decrease in absorbance at the wavelength of 340 nm, is proportional to the concentration of ADP produced by Hsp82.
The products tested were incubated in a reaction volume of 100 μl of buffer composed of 100 mM Hepes-NaOH (pH 7.5), 5 mM MgCl2, 1 mM DTT, 150 mM KCl, 0.3 mM NADH, 2.5 mM PEP and 250 μM ATP. This mixture was preincubated at 37° C. for 30 min before adding 3.77 units of LDH and 3.77 units of PK. The reaction was initiated by addition of the product to be evaluated, in variable concentrations, and of Hsp82, at the concentration of 1 μM. Measurement of the enzymatic activity of Hsp82 was then carried out, continuously, in a microplate reader at 37° C., at the wavelength of 340 nm. The initial rate of the reaction was obtained by measuring the slope of the tangent at the origin of the curve recorded. The enzymatic activity was expressed in μM of ADP formed per minute. The effect of the various products tested was expressed as a percentage inhibition of the ATPase activity.
The inhibitory activities on the ATPase activity of Hsp82 obtained with the products of the invention in the enzymatic coupling system are given in the table below, according to the criteria below for inhibition of the ATPase activity of Hsp82: […]
As for `CC(Nc1nc(Cl)nc2[nH]cnc12)c1ccccc1` (racemic) [Example 3, 2-chloro-6-(1(R,S)-phenylethyl)amino-1H-purine], the IC50 is 10 to 100 µM.

Still in this series, the particulars now being: ATPase activity of Hsp82, PK/LDH enzymatic coupling system, 1 μM Hsp82, 250 μM ATP, 37° C., absorbance at 340 nm; read-out: IC50.
For the compound `CCOC(=O)CC1CCN(c2ncnc3[nH]cnc23)CC1` [Example 8, 6-[4-(ethyloxycarbonyl)methylpiperidin-1-yl]-1H-purine], the half-maximal inhibitory concentration (IC50) lay in the range of 10 to 100 µM.

Turning to `Cl.c1ccc(CN2CCN(c3ncnc4[nH]cnc34)CC2)cc1` [Example 1], the IC50 lay within 1 to 10 µM.

In the case of `Clc1nc(OCc2ccccc2)c2nc[nH]c2n1` [Example 2, 2-chloro-6-phenylmethyloxy-1H-purine], the IC50 lay in the range of 10 to 100 µM.

In the case of `c1csc(CNc2[nH]cnc3ncnc2-3)c1` [Example 5, 6-(thiophen-2-yl)methylamino-1H-purine], the IC50 lay within 10 to 100 µM.

Turning to `Clc1nc(NCCN2CCOCC2)c2nc[nH]c2n1` [Example 4, 2-chloro-6-[2-(morpholin-4-yl)ethylamino]-1H-purine], the IC50 was in the range of 10 to 100 µM.

Turning to `c1nc(N2CCCCC2)c2nc[nH]c2n1` [Example 9, 6-(piperidin-1-yl)-1H-purine], the IC50 lay within 1 to 10 µM.

In the case of `Clc1nc(NCCNCc2ccccc2)c2nc[nH]c2n1` [Example 6], the IC50 lay within 10 to 100 µM.

Regarding `c1ccc(N2CCN(c3ncnc4[nH]cnc34)CC2)nc1` [Example 10, 6-[4-(pyridin-2-yl)piperazinyl]-1-H-purine monohydrochloride], the IC50 was 1 to 10 µM.

Tested on in a further series: not given
Experiment: not given
Details: not given
`Cl.c1ccc(CN2CCN(c3ncnc4[nH]cnc34)CC2)cc1` [Example 1] registered a melting point of 258 to 260 °C.
